Experimental data published in patent US9688669B2, “Oxazolidinones as modulators of mGluR5” (BRISTOL-MYERS SQUIBB COMPANY, priority 2013, dated 2017).

Target: human mGluR5A (Homo sapiens (Human), UniProt P41594)
Experiment: mGluR5 FLIPR Assay
Type: cell-based
Details: positive modulator activity, HEK293 (ZF) cells with human mGluR5A and rat GLAST, Ca++ response to ~EC10 l-glutamate
Procedure: HEK293 (ZF) cells stably transfected with human mGluR5A (pIRES neo) and the rat glutamate-aspartate transporter (GLAST; pIRES puro) are grown in a monolayer culture at 37° C. in 5% CO2 and fed with Minimum Essential Medium (MEM) supplemented with 10% dialysed fetal bovine serum. […] Plates are incubated in dye at 37° C. in 5% CO2 for 60 minutes prior to delivery of test compounds in assay buffer. Test compounds are incubated with cells in the presence of dye for 10 minutes prior to being read on the FLIPR platform (Molecular Devices). A Ca^++ signal is induced in the assay plates via the delivery of an ˜EC10 concentration of the endogenous agonist 1-glutamate; images are acquired at 1 Hz for 100 seconds post-delivery of agonist stimulus. Positive modulator activity (i.e. the ability of test compounds to increase the Ca^++ response to a sub-maximal concentration of agonist) is normalized to a saturating concentration of a known mGluR5 PAM run in each assay plate. An EC50 concentration of test compounds is derived from 4-parameter logistic curve fits of transformed fluoresence data via proprietary software suite.

Chain of human mGluR5A (P41594 other isoform, or with tags, fused parts or gaps): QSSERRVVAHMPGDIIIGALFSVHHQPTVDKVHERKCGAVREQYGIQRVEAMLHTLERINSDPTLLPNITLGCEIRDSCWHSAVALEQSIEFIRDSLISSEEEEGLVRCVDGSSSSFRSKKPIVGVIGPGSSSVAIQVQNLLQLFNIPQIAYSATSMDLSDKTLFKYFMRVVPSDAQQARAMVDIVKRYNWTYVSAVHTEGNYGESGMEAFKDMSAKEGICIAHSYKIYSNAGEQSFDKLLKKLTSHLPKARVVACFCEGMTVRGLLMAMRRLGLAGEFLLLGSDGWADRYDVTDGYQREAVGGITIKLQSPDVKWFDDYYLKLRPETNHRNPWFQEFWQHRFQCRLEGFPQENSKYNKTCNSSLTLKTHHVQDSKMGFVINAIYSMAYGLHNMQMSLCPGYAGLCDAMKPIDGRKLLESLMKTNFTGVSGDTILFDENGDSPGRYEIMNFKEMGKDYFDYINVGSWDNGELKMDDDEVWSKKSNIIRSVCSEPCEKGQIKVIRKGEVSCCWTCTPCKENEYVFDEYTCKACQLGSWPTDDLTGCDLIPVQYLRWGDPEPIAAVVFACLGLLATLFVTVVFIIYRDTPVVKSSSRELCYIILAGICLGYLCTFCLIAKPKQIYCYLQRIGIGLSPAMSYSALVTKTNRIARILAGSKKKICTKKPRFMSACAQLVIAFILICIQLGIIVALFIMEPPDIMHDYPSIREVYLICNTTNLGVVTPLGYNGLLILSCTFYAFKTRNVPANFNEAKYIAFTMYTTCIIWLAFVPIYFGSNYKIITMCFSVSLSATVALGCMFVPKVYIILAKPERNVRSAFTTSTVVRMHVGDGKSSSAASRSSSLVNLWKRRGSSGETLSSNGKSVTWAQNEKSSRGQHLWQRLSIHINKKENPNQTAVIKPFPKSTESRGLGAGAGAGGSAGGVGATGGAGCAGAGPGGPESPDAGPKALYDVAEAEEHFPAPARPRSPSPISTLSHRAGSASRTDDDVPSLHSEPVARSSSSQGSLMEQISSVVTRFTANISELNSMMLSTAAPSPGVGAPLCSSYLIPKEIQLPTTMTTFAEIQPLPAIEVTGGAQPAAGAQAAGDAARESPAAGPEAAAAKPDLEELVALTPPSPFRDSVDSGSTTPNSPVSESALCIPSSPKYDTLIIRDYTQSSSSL

Row | Compound | EC50 [nM]
1 | CC(O)CCC#Cc1cncc([C@H]2NC(=O)O[C@@H]2c2cccc(F)c2)c1 (single isomer, unassigned) [Example 7] | 5.9
2 | CCCC(O)C#Cc1cncc([C@H]2NC(=O)O[C@@H]2c2cccc(F)c2)c1 (single isomer, unassigned) [Example 15] | 20.4
3 | CCC(O)CC#Cc1cncc([C@H]2NC(=O)O[C@@H]2c2cccc(F)c2)c1 (single isomer, unassigned) [Example 19] | 27.6
4 | CCC(O)CC#Cc1cncc([C@H]2NC(=O)O[C@@H]2c2cccc(F)c2)c1 (single isomer, unassigned) [Example 20] | 60.8
5 | CCCC(O)C#Cc1cncc([C@H]2NC(=O)O[C@@H]2c2cccc(F)c2)c1 (single isomer, unassigned) [Example 22] | 32.3
6 | O=C1N[C@H](c2cncc(C#CC(O)C3CC3)c2)[C@@H](c2cccc(F)c2)O1 (single isomer, unassigned) [Example 57] | 77.3
7 | O=C1N[C@H](c2cncc(C#CC(O)C3CC3)c2)[C@@H](c2cccc(F)c2)O1 (single isomer, unassigned) [Example 59] | 226
8 | O=C1N[C@H](c2cncc(C#CC(O)CC3CC3)c2)[C@@H](c2cccc(F)c2)O1 (single isomer, unassigned) [Example 73] | 27.9
9 | O=C1N[C@H](c2cncc(C#CC(O)CC3CC3)c2)[C@@H](c2cccc(F)c2)O1 (single isomer, unassigned) [Example 74] | 27.4
10 | O=C1N[C@H](c2cncc(C#CCC3CCC3)c2)[C@@H](c2cccc(F)c2)O1 [Example 1, (4R,5R)-4-(5-(3-Cyclobutylprop-1-yn-1-yl)pyridin-3-yl)-5-(3-fluorophenyl)oxazolidin-2-one] | 1.7
11 | CCSCC#Cc1cncc([C@H]2NC(=O)O[C@@H]2c2cccc(F)c2)c1 [Example 2] | 2
12 | CCCCC#Cc1cncc([C@H]2NC(=O)O[C@@H]2c2cccc(F)c2)c1 [Example 3] | 2.2
13 | O=C1N[C@H](c2cncc(C#CCC3CC3)c2)[C@@H](c2cccc(F)c2)O1 [Example 4] | 3.6
14 | CC(C)CCC#Cc1cncc([C@H]2NC(=O)O[C@@H]2c2cccc(F)c2)c1 [Example 5] | 4.7
15 | CCCC#Cc1cncc([C@H]2NC(=O)O[C@@H]2c2cccc(F)c2)c1 [Example 6] | 5.2
16 | CC(O)CCC#Cc1cncc([C@H]2NC(=O)O[C@@H]2c2cccc(F)c2)c1 (stereo partly shown) [Example 8] | 12.3
17 | CC(C)CC#Cc1cncc([C@H]2NC(=O)O[C@@H]2c2cccc(F)c2)c1 [Example 9] | 11.4
18 | CC(O)CCC#Cc1cncc([C@H]2NC(=O)O[C@@H]2c2cccc(F)c2)c1 (stereo partly shown) [Example 10] | 12.6
19 | O=C1N[C@H](c2cncc(C#CCC3CCOCC3)c2)[C@@H](c2cccc(F)c2)O1 [Example 11] | 13.6
20 | CCCC(O)C#Cc1cncc([C@H]2NC(=O)O[C@@H]2c2cccc(F)c2)c1 (stereo partly shown) [Example 12] | 15.4
21 | O=C1N[C@H](c2cncc(C#CCC3CCCCC3)c2)[C@@H](c2cccc(F)c2)O1 [Example 13] | 16.4
22 | O=C1N[C@H](c2cncc(C#CC(O)C3CCC3)c2)[C@@H](c2cccc(F)c2)O1 (stereo partly shown) [Example 14] | 16.6
23 | CCC(C)(O)C#Cc1cncc([C@H]2NC(=O)O[C@@H]2c2cccc(F)c2)c1 (stereo partly shown) [Example 16] | > 3230
24 | COCCC#Cc1cncc([C@H]2NC(=O)O[C@@H]2c2cccc(F)c2)c1 [Example 17] | 23.2
25 | CCC(O)CC#Cc1cncc([C@H]2NC(=O)O[C@@H]2c2cccc(F)c2)c1 (stereo partly shown) [Example 21] | 29.5
26 | CCCC(C)C#Cc1cncc([C@H]2NC(=O)O[C@@H]2c2cccc(F)c2)c1 (stereo partly shown) [Example 23] | 43.6
27 | O=C1N[C@H](c2cncc(C#CCOc3ccccc3)c2)[C@@H](c2cccc(F)c2)O1 [Example 24] | 43.9
28 | CC(C)CC(O)C#Cc1cncc([C@H]2NC(=O)O[C@@H]2c2cccc(F)c2)c1 (stereo partly shown) [Example 25] | 45.2

Row | Compound | EC50 [nM]
29 | Cc1ccn(CC#Cc2cncc([C@H]3NC(=O)O[C@@H]3c3cccc(F)c3)c2)n1 [Example 26] | 46.2
30 | O=C1N[C@H](c2cncc(C#CCn3cc(Cl)cn3)c2)[C@@H](c2cccc(F)c2)O1 [Example 27] | 48.2
31 | CC(C)C(O)C#Cc1cncc([C@H]2NC(=O)O[C@@H]2c2cccc(F)c2)c1 (stereo partly shown) [Example 28] | 76.9
32 | O=C1N[C@H](c2cncc(C#CCC3CC3(F)F)c2)[C@@H](c2cccc(F)c2)O1 (stereo partly shown) [Example 29] | 77.5
33 | O=C1N[C@H](c2cncc(C#CC(O)C3CCCCC3)c2)[C@@H](c2cccc(F)c2)O1 (stereo partly shown) [Example 30] | 85.1
34 | Cc1ccnn1CC#Cc1cncc([C@H]2NC(=O)O[C@@H]2c2cccc(F)c2)c1 [Example 31] | 108
35 | CCC(O)C#Cc1cncc([C@H]2NC(=O)O[C@@H]2c2cccc(F)c2)c1 (stereo partly shown) [Example 32] | 116
36 | O=C1N[C@H](c2cncc(C#CCn3ccnc3)c2)[C@@H](c2cccc(F)c2)O1 [Example 33] | 134
37 | CC(C)(C)OCC#Cc1cncc([C@H]2NC(=O)O[C@@H]2c2cccc(F)c2)c1 [Example 34] | 244
38 | N#CCCC#Cc1cncc([C@H]2NC(=O)O[C@@H]2c2cccc(F)c2)c1 [Example 35] | 255
39 | O=C1N[C@H](c2cncc(C#CCN3CCOCC3)c2)[C@@H](c2cccc(F)c2)O1 [Example 36] | 291
40 | COCC(O)CC#Cc1cncc([C@H]2NC(=O)O[C@@H]2c2cccc(F)c2)c1 (stereo partly shown) [Example 37] | 383
41 | O=C1N[C@H](c2cncc(C#CCOC3CCCCO3)c2)[C@@H](c2cccc(F)c2)O1 (stereo partly shown) [Example 38] | 498
42 | O=C1N[C@H](c2cncc(C#CC3(O)CCCC3)c2)[C@@H](c2cccc(F)c2)O1 [Example 39] | 510
43 | CC(C)(O)CC#Cc1cncc([C@H]2NC(=O)O[C@@H]2c2cccc(F)c2)c1 [Example 40] | 513
44 | O=C1N[C@H](c2cncc(C#CCN3CCCCC3)c2)[C@@H](c2cccc(F)c2)O1 [Example 41] | 730
45 | CC(O)CC#Cc1cncc([C@H]2NC(=O)O[C@@H]2c2cccc(F)c2)c1 (stereo partly shown) [Example 42] | > 1610
46 | O=C1N[C@H](c2cncc(C#CCc3ccccc3)c2)[C@@H](c2cccc(F)c2)O1 [Example 43] | > 1610
47 | CN(C)CCC#Cc1cncc([C@H]2NC(=O)O[C@@H]2c2cccc(F)c2)c1 [Example 44] | > 1610
48 | CC(=O)NCC#Cc1cncc([C@H]2NC(=O)O[C@@H]2c2cccc(F)c2)c1 [Example 45] | > 1610
49 | O=C1N[C@H](c2cncc(C#CCC3(O)CCC3)c2)[C@@H](c2cccc(F)c2)O1 [Example 46] | > 1610
50 | O=C1N[C@H](c2cncc(C#CCN3CCCC3=O)c2)[C@@H](c2cccc(F)c2)O1 [Example 47] | > 1610
51 | O=C1N[C@H](c2cncc(C#CCNC(=O)C(F)(F)F)c2)[C@@H](c2cccc(F)c2)O1 [Example 48] | > 1610
52 | O=C1N[C@H](c2cncc(C#CCn3ncc4ccccc43)c2)[C@@H](c2cccc(F)c2)O1 [Example 49] | > 1610
53 | CC(C)C#Cc1cncc([C@H]2NC(=O)O[C@@H]2c2cccc(F)c2)c1 [Example 50] | > 3230
54 | CCCCCC#Cc1cncc([C@H]2NC(=O)O[C@@H]2c2cccc(F)c2)c1 [Example 51] | 8.1
55 | O=C1N[C@H](c2cncc(C#CCOCC(F)(F)F)c2)[C@@H](c2cccc(F)c2)O1 [Example 52] | 9.3
